Data: patent publication US9061041B2, “2′-substituted nucleoside derivatives and methods of use thereof for the treatment of viral diseases” (Merck Sharp & Dohme Corp., priority 2011, dated 2015)

Assays:
[1] = target: HCV NS5B RNA-dependent RNA polymerase (1b-BKΔ55) (Hepatitis C virus genotype 1b (isolate BK) (HCV), UniProt P26663); test: biochemical
[2] = tested on: human cryopreserved hepatocyte; assay type: in vitro ADME; conditions: human hepatocytes, NTP level over Ki
Description: A 2 mM stock solution of the prodrug test compound is prepared in 5% DMSO/95% MeOH to provide a final sample concentration of 10 μM. A 5 μL aliquot is removed from this stock solution and added to 1 mL of either a rat or human cryopreserved hepatocyte sample to provide a control sample at a concentration of 1 million cells/mL. This sample is assayed in triplicate and used as a test sample.
Human and rat hepatocytes are removed from liquid nitrogen storage and thawed by submerging the hepatocyte tube into a pre-heated 37° C. waterbath and gently shaking the tube back & forth until thawed. The thawed hepatocytes are then gently poured into a container of Hepatocyte Basal Medium (50 mL, pre-warmed to 37° C.) and washed. […]
A 1 mL aliquot is removed from the 1 million cells/mL final hepatocyte suspension, analyzed in triplicate and placed into 20 mL scintillation vial without a cap. […]
The incubated hepatocyte suspension samples are transferred to a micro-centrifuge tube using a transfer pipette and centrifuged at 500 rpm for 4 minutes at room temperature. […] The resulting extract solution is then stored in a refrigerator at 4° C. until ready for use, at which point the sample is first subjected to vortexing/sonication to ensure that all hepatocyte cells have burst. […]

Sequence of HCV NS5B RNA-dependent RNA polymerase (1b-BKΔ55) (P26663 2420-2955): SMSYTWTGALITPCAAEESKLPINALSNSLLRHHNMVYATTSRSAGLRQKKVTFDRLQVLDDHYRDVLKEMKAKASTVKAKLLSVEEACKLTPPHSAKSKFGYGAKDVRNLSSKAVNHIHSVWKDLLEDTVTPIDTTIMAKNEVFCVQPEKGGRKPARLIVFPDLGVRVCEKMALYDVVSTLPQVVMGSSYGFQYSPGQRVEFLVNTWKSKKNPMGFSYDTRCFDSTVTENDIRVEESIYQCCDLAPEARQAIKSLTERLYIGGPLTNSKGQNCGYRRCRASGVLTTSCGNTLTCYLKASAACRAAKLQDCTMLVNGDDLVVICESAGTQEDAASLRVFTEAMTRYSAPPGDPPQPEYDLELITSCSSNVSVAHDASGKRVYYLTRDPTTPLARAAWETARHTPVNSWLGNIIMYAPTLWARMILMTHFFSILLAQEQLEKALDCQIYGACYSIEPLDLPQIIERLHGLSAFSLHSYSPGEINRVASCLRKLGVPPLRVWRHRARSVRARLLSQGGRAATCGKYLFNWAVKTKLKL

C[C@@]1(N)[C@H](O)[C@@H](COP(=O)(O)OP(=O)(O)OP(=O)(O)O)O[C@H]1n1cnc2c(=O)[nH]c(N)nc21 [Compound 80]
IC50 [1]: 600 nM

C[C@@]1(N)[C@H](O)[C@@H](COP(=O)(O)OP(=O)(O)OP(=O)(O)O)O[C@H]1n1ccc(N)nc1=O [Compound 81]
IC50 [1]: 2300 nM

C[C@@]1(N)[C@H](O)[C@@H](COP(=O)(O)OP(=O)(O)OP(=O)(O)O)O[C@H]1n1ccc(=O)[nH]c1=O [Compound 82]
IC50 [1]: 13000 nM

CCOC(=O)[C@H](C)NP(=O)(OC[C@H]1O[C@@H](n2cnc3c(OC)nc(N)nc32)[C@](C)(N)[C@@H]1O)Oc1ccccc1 (some centres unmarked) [drawing 225]
Human Hepatocyte NTP (4 hour at 10 μM)/Ki [2]: 32 x

CC(C)OC(=O)[C@H](C)NP(=O)(OC[C@H]1O[C@@H](n2ccc(=O)[nH]c2=O)[C@](C)(N)[C@@H]1O)Oc1ccccc1 (some centres unmarked) [drawing 226]
Human Hepatocyte NTP (4 hour at 10 μM)/Ki [2]: 30 x
